Results as given in patent publication US11986475B1, “Compositions and methods for treating cancer” (A2A Pharmaceuticals, Inc., priority 2022, dated 2024).

Assays:
RKO xenograft = experiment: RKO colon cancer xenograft tumor growth; type: in vivo, female athymic Balb/c nude mice
Procedure: Six-to-eight-week-old female athymic Balb/c nude mice were housed with a temperature-controlled and 12-hour light/12-hour dark cycle environment. For in vivo colon cancer tumor growth, 5×10^6 RKO cells were prepared in 100 μl of DMEM and injected into right flank of female nude mice. Mouse weight and tumor volume were measured twice a week. Tumor volumes were calculated as length×width^2×0.5. Once the tumor volume had reached about 150-175 mm^3, xenografts were randomized into groups (8 mice per group). Animals were treated with vehicle, Compound 80 or oxaliplatin as mentioned in the table. The formulation for vehicle and Compound 80 was 50% PEG400 and 20% Cremophor RH40 final (50% of 40% Cremophor) in Acetate buffer, PH=4. Oxaliplatin was prepared in glucose solution. The mice were sacrificed after around 3 weeks or if the tumors reached a predefined tumor volume cut-off of 2500 mm^3.

HEC-59 = experiment: Cell viability assay (SRB or CTG) in HEC-59; type: cell-based; conditions: Homo sapiens, 7 days total, media renewed at day 4, SRB or CTG
Procedure: (§1) Human breast carcinoma cell line, MDA-MB-231 and human endometrial cancer cell line, HEC-59 were purchased from ATCC (American Type Culture Collection; USA). MDA-MB-231 cells were cultured in Dulbecco's modified Eagle's medium (Lonza, NJ, USA), and HEC-59 were grown in Iscove's Modified Dulbecco's Medium (Lonza, NJ, USA), supplemented with 10% fetal bovine serum (FBS, Lonza), 1% non-essential amino acid (NEAA), 2 mM L-glutamine (Sigma Aldrich, MO, USA) and 50 U/ml penicillin/streptomycin (P/S). All cell lines were tested regularly using MycoAlert Mycoplasma Detection Kit (Lonza). The cumulative length of the cells between thawing and use in the experiments was less than 20 passages.
(§2) 4000 cells/well of MDA-MB-231 and HEC-59 cells were seeded in a 96 well plate in 80 μL media/well. Approximately 18 hours later, 3× drug solutions were prepared by serial dilution (100, 10, 5, 1, 0.5, 0.3, 0.1, 0.05, 0.01 μM), and the drug containing media was added to each well with a volume of 40 μL. For MDA-MB-231, 3 days after drug treatment, the SRB or CTG assay was performed. HEC59, the drug containing media was renewed at day 4. After 7 days total, the SRB or CTG assay was performed.

MDA-MB-231 = experiment: Cell viability assay (SRB or CTG) in MDA-MB-231; type: cell-based; conditions: Homo sapiens, MDA-MB-231, 72 h, 3 days after drug treatment
Procedure: as §1, §2

SKOV-3 xenograft = SKOV-3 xenograft tumor growth; type: in vivo, female athymic Balb/c nude mice; conditions: SKOV-3 xenograft, 20, 25 and 30 mpk BID
Procedure: (§3) Compound 80 was tested in other xenograft models using the following cell lines: triple negative breast cancer cell line, MDA-MB-231, ovarian cancer cell line, SKOV-3 and endometrium cell line, HEC-59. For the SKOV-3 xenograft, 1.5×10^7 SKOV-3 cells in 200 μl of 1:1 DMEM: Matrigel (Thermo Fisher, NJ, USA) and for the MDA-MB-231 xenograft, 1.5×10^7 MDA-MB-231 cells in 100 μl of 1:1 DMEM: Matrigel (Thermo Fisher, NJ, USA) for was injected in the right flank of six-to-eight-week-old female athymic Balb/c nude mice. When the tumor volume reached mean of ˜200 mm^3 mice for SKOV-3 xenografts and between 150-175 mm^3 for MDA-MB-231 xenografts, mice were randomized in a group of 8, and treatment was initiated vehicle, 20 mpk BID, 25 mpk BID and 30 mpk BID of Compound 80. For the HEC-59 xenografts, 1.×10^7 HEC-59 cells in 100 μl of DMEM (Lonza, NJ, USA) was injected in the right flank of six-to-eight-week-old female athymic Balb/c nude mice. When the tumor volume reached mean of ˜150 mm^3 mice were randomized in a group of 8 mice, and treatment was initiated vehicle, 20 mpk BID, 40 mpk QD and 30/40 mpk BID of Compound 80.

HEC-59 xenograft = HEC-59 xenograft tumor growth; type: in vivo, female athymic Balb/c nude mice; conditions: 20 mpk BID, 40 mpk QD and 30/40 mpk BID
Procedure: as §3

MDA-MB-231 xenograft = MDA-MB-231 xenograft tumor growth; type: in vivo, female athymic Balb/c nude mice; conditions: MDA-MB-231 xenograft, 20, 25 and 30 mpk BID
Procedure: as §3

- IC50 (MDA-MB-231): 398 nM
Compound: C[C@@H]1CN(c2ncc(F)c(Nc3cc(-c4ccc(OC(F)F)cc4)cnn3)n2)C[C@H](C)O1 [Compound 80, 5-(4-(difluoromethoxy)phenyl)-N-(2-((2R,6S)-2,6-dimethylmorpholino)-5-fluoropyrimidin-4-yl)pyridazin-3-amine]
- tumor growth inhibition (in words) (RKO xenograft; RKO xenograft, 20 and 30 mg/kg BID, 50 mg/kg QD PO): strong tumor growth inhibition in a dose-dependent manner
- TGI (RKO xenograft; RKO xenograft, at the highest dose, PO, 20 days): 85%
- tumor growth inhibition compared to the standard of care (FIG. 1) (RKO xenograft; xenograft model, versus standard of care (oxaliplatin)): superior tumor growth inhibition
- IC50 (HEC-59): 236 nM
- tumor growth inhibition or regression (SKOV-3 xenograft): Statistically significant tumor growth inhibition or regression was observed
- tumor growth inhibition or regression (HEC-59 xenograft): Statistically significant tumor growth inhibition or regression was observed
- tumor growth inhibition or regression (MDA-MB-231 xenograft): Statistically significant tumor growth inhibition or regression was observed
